US8895761B2, “4-phenylpyrane-3,5-diones, 4-phenylthiopyrane-3,5-diones and 2-phenylcyclohexane-1,3,5-triones as herbicides” (Syngenta Limited, priority 2007, dated 2014)

Tests used:
Type in all cases: in vivo
Lolium perenne (LOLPE) [1] = test: Pre-emergence herbicidal glasshouse test, Lolium perenne; conditions: 312 h, rate 250 g/ha, evaluated after 13 days, scale 100 = total damage to plant, 0 = no damage
Experimental: (§1) Seeds of a variety of test species were sown in standard soil in pots. After cultivation for one day (pre-emergence) or after 8 days cultivation (post-emergence) under controlled conditions in a glasshouse (at 24/16° C., day/night; 14 hours light; 65% humidity), the plants were sprayed with an aqueous spray solution derived from the formulation of the technical active ingredient in acetone/water (50:50) solution containing 0.5% Tween 20 (polyoxyethelyene sorbitan monolaurate, CAS RN 9005-64-5). The test plants were then grown in a glasshouse under controlled conditions in a glasshouse (at 24/16° C., day/night; 14 hours light; 65% humidity) and watered twice daily. After 13 days for pre and post-emergence, the test was evaluated ([…] to plant; 0=no damage to plant).
(§2) Setaria faberi (SETFA), Lolium perenne (LOLPE), Alopecurus myosuroides (ALOMY), Echinochloa crus-galli (ECHCG) and Avena fatua (AVEFA).

[2] = test system: Alopecurus myosuroides (ALOMY); test: Pre-emergence herbicidal glasshouse test, Alopecurus myosuroides; conditions: Alopecurus myosuroides, 312 h, rate 250 g/ha, evaluated after 13 days, scale 100 = total damage to plant, 0 = no damage
Experimental: as §1, §2

[3] = test system: Echinochloa crus-galli (ECHCG); test: Pre-emergence herbicidal glasshouse test, Echinochloa crus-galli; conditions: Echinochloa crus-galli, 312 h, rate 250 g/ha, evaluated after 13 days, scale 100 = total damage to plant, 0 = no damage
Experimental: as §1, §2

Avena fatua (AVEFA) [4] = test: Pre-emergence herbicidal glasshouse test, Avena fatua; conditions: Avena fatua, 312 h, rate 250 g/ha, evaluated after 13 days, scale 100 = total damage to plant, 0 = no damage
Experimental: as §1, §2

Lolium perenne (LOLPE) [5] = test: Post-emergence herbicidal glasshouse test, Lolium perenne; conditions: 312 h, rate 250 g/ha, evaluated after 13 days, scale 100 = total damage to plant, 0 = no damage
Experimental: as §1, §2

[6] = test system: Alopecurus myosuroides (ALOMY); test: Post-emergence herbicidal glasshouse test, Alopecurus myosuroides; conditions: Alopecurus myosuroides, 312 h, rate 250 g/ha, evaluated after 13 days, scale 100 = total damage to plant, 0 = no damage
Experimental: as §1, §2

[7] = test system: Echinochloa crus-galli (ECHCG); test: Post-emergence herbicidal glasshouse test, Echinochloa crus-galli; conditions: Echinochloa crus-galli, 312 h, rate 250 g/ha, evaluated after 13 days, scale 100 = total damage to plant, 0 = no damage
Experimental: as §1, §2

Avena fatua (AVEFA) [8] = test: Post-emergence herbicidal glasshouse test, Avena fatua; conditions: Avena fatua, 312 h, rate 250 g/ha, evaluated after 13 days, scale 100 = total damage to plant, 0 = no damage
Experimental: as §1, §2

SMILES	pest or weed control at 250 g/ha (Lolium perenne (LOLPE) [1]) [%]	pest or weed control at 250 g/ha [2] [%]	pest or weed control at 250 g/ha [3] [%]	pest or weed control at 250 g/ha (Avena fatua (AVEFA) [4]) [%]	pest or weed control at 250 g/ha (Lolium perenne (LOLPE) [5]) [%]	pest or weed control at 250 g/ha [6] [%]	pest or weed control at 250 g/ha [7] [%]	pest or weed control at 250 g/ha (Avena fatua (AVEFA) [8]) [%]
CCc1cc(-c2cc(F)c(F)c(F)c2)ccc1C1=C(O)C(C)(C)OC(C)(C)C1=O [Compound A-84]	70	30	30	40	100	80	100	100
CCc1cc(-c2ccc(F)c(F)c2)ccc1C1=C(O)C(C)(C)C(=O)C(C)(C)C1=O [Compound C-4]	20	20	0	0	80	80	70	30
CCc1cc(-c2ccc(F)cc2OC)ccc1C1=C(O)C(C)(C)OC(C)(C)C1=O [Compound A-85]	70	0	20	30	70	60	80	40
CCc1cc(-c2ccc(F)c(F)c2)ccc1C1=C(O)C(C)(COC)OC(C)(C)C1=O (stereo not drawn) [Compound A-113]	100	100	100	90	100	100	100	90
CCc1cc(-c2ccc(F)c(OC)c2)ccc1C1=C(O)C(C)(CC)OC(C)(CC)C1=O (stereo not drawn) [Compound A-128]	20	10	40	0	60	60	80	70
CCc1cc(-c2ccc(Cl)c(F)c2)ccc1C1=C(O)C(C)(C)OC(C)(C)C1=O [Compound A-42]	90	10	90	20	90	90	100	80
CCc1cc(-c2ccc(F)c(OC)c2)ccc1C1=C(O)C(C)(C)OC(C)(C)C1=O [Compound A-78]	80	20	0	30	100	80	100	90
CCc1cc(-c2ccc(F)c(F)c2)ccc1C1=C(O)C(C)(C)S(=O)(=O)C(C)(C)C1=O [Compound B-17]	50	50	10	10	70	80	50	70
CCc1cc(-c2ccc(F)cc2)ccc1C1=C(O)C(C)(C)OC(C)(C)C1=O [Compound A-50]	100	60	90	60	100	90	100	80
CCc1cc(-c2ccc(F)cc2)ccc1C1=C(O)C(C)(CC)OC(C)(CC)C1=O (stereo not drawn) [Compound A-104]	60	50	40	0	60	90	90	10
CCc1cc(-c2cc(F)c(F)c(F)c2)ccc1C1=C(O)C(C)(C)SC(C)(C)C1=O [Compound B-6]	50	50	0	0	80	90	80	90
CCc1cc(-c2cc(F)c(F)c(F)c2)ccc1C1=C(O)C2(CCCC2)OC(C)(C)C1=O [Compound A-126]	10	10	10	0	40	40	70	20
CCc1cc(-c2ccc(Cl)s2)ccc1C1=C(O)C(C)(C)OC(C)(C)C1=O [Compound A-41]	20	0	0	30	60	50	70	0
CCc1cc(-c2cc(F)c(F)cc2F)ccc1C1=C(O)C(C)(CC)OC(C)(CC)C1=O (stereo not drawn) [Compound A-132]	20	20	10	0	50	60	80	0
CCc1cc(-c2cc(Cl)ccc2OC)ccc1C1=C(O)C(C)(C)C(=O)C(C)(C)C1=O [Compound C-6]	70	40	0	10	20	20	50	10
CCc1cc(-c2ccc(F)c(F)c2F)ccc1C1=C(O)C(C)(CC)OC(C)(C)C1=O (stereo not drawn) [Compound A-123]	0	0	0	0	80	80	90	80
CCc1cc(-c2ccc(F)c(OC)c2)ccc1C1=C(O)C(C)(C)C(=O)C(C)(C)C1=O [Compound C-3]	10	10	10	0	60	30	70	50
CCc1cc(-c2ccc(Cl)c(Cl)c2F)ccc1C1=C(O)C(C)(C)OC(C)(C)C1=O [Compound A-48]	0	0	0	0	30	50	100	20
